# Several values for one entry are separate records, joined by “and”; a condition that tells them apart may be missing. Identical values can stand only once.
# Columns and labels:
# Format in all cases: cell-based
# HIV-1LAI S117T/L214F = assay: p24 reduction assay in MT-2 cells, S117T/L214F; conditions: Table 8
# Experimental: (§1) Cells. MT-2 cells (AIDS Research and Reference Reagent Program, National Institute of Allergy and Infectious Diseases, National Institutes of Health) were maintained in RPMI 1640 supplemented with 10% fetal bovine serum (FBS; JRH Biosciences, Lenexa, Kans.), 10 mM HEPES buffer, 50 IU/ml penicillin and 50 μg/ml streptomycin.
# (§2) Antiviral Susceptibility Assays. The antiviral activity of each compound was determined by inoculating MT-2 cells with HIV-1LAI at a multiplicity of infection (MOI) of 0.01 TCID50/cell, followed by incubation in the presence of three-fold serial drug dilutions (3 wells per dilution) (see Mellors, et. al., Antimicrob. Agents Chemother. 39:1087-1092). Five or seven days after infection, culture supernatants were harvested, lysed with 0.5% triton-X 100 and assayed for p24 antigen concentration using a commercial ELISA assay (DuPont, NEN Products, Wilmington, Del.). The antiviral activity of the compounds is expressed as the IC50, which is the concentration required to inhibit 50% of p24 antigen production. The fold-resistance of a test virus is calculated by dividing the IC50 of the test virus by the IC50 of the HIV-1LAI control virus.
# (§3) Generation of Mutant Recombinant HIV-1. HIV-1 containing the desired mutations were generated by oligonucleotide directed mutagenesis (Altered Sites II, Promega) as previously described (Mellors, et. al., Molecular Pharm. 41:446-451). After mutagenesis, mutant RT was subcloned into the pxxHIV-1LAI cloning vector using the silent XmaI and XbaI restriction sites located at the 5′ and 3′ ends of RT. Clones were DNA sequenced to verify the presence of the desired mutation(s) and electroporated into MT-2 cells as described above to generate infectious mutant recombinant HIV-1.
# Mutant RT was generated via oligonucleotide-directed mutagenesis and ligated into the pXXHIV-1LAI cloning vector. […]
# (§4) Recombinant viruses containing the mutations selected by invention compounds were also evaluated for their susceptibility to AZT, as shown in Table 8.
# HIV-1LAI S117T/4XAZT = assay: p24 reduction assay in MT-2 cells, S117T/4XAZT; conditions: Table 8
# Experimental: as §1, §2
# (§5) Generation of Mutant Recombinant HIV-1. […]
# as §4
# HIV-1LAI L214F = assay: p24 reduction assay in MT-2 cells, L214F; conditions: Table 8
# Experimental: as §1, §2, §5, §4
# HIV-1LAI M164I = assay: p24 reduction assay in MT-2 cells, M164I; conditions: Table 8
# Experimental: as §1, §2, §5, §4
# [1] = system: HIV-1LAI selected with EB-PFA, passage 15 (W88G, L214F); assay: Susceptibility of virus selected in vitro with EB-PFA
# Experimental: as §2
# (§6) Selection of Resistant Viruses. […] Viral cytopathic effects (CPE) were monitored daily. […] The passaged virus was monitored regularly for a reduction in susceptibility to the compounds by determining the EC50 relative to unpassaged HIV-1LAI (Mellors, et. al., Antimicrob. Agents Chemother. 39:1087-1092). […]
# [2] = system: recombinant HIV-1 with V75L alone or in combination with L214F or M164I; assay: p24 reduction assay in MT-2 cells, V75L recombinants; conditions: Example 6
# Experimental: as §2
# as §3, with “Clones were DNA sequenced to verify the presence of the desired mutation(s) and electroporated into MT-2 cells as described above to generate infectious mutant recombinant HIV-1.” left out
# [3] = system: HIV-1LAI selected with MB-PFA, passage 15; assay: Susceptibility of virus selected in vitro with MB-PFA
# Experimental: as §2
# Selection of Resistant Viruses. Selections were initiated by inoculating 1.0×10^6 MT-2 cells at an MOI of 0.1 with plasmid derived HIV-1LAI which had been passaged as cell-free virus 10 times in MT-2 cells in the absence of compound (see Bazmi, et. al., Antimicrobial Agents and Chemotherapy 44:1783-1788). Cells were pretreated with drug for two hours prior to inoculation with virus. For each selection, the starting concentration was the IC50 of the compound, and the selective pressure (i.e. drug concentration) was doubled every three passages. Viral cytopathic effects (CPE) were monitored daily. At 2+CPE (≧2 syncitia per 100× field) cell free virus supernatant was harvested and used to initiate a new cycle of infection in fresh MT-2 cells. The passaged virus was monitored regularly for a reduction in susceptibility to the compounds by determining the EC50 relative to unpassaged HIV-1LAI (Mellors, et. al., Antimicrob. Agents Chemother. 39:1087-1092).
# Genetic Analyses. Virions were pelleted from culture supernatants by centrifugation at 25,000×g for 1 hour. Total RNA was extracted from the virus pellet using TRIZOL® Reagent (Gibco BRL, Grand Island, N.Y.) and resuspended in diethyl pyrocarbonate-treated sterile water. […]
# [4] = system: HIV-1LAI selected with PFA, passage 17 (W88G); assay: Susceptibility of virus selected in vitro with PFA, passage 17
# Experimental: as §2, §6
# (§7) As controls for the invention compound selections, HIV-1LAI was passaged in the presence and absence of unmodified PFA. […] None of the mutations selected by the invention compounds or free PFA were detected in control viruses passaged in the absence of drug.
# [5] = system: HIV-1LAI selected with PFA, passage 15 (S117T); assay: Susceptibility of virus selected in vitro with PFA, passage 15
# Experimental: as §2, §6, §7
# [6] = Table 6, passage 15, relative to passage 0
compound,measurement,setting,value
"Cc1cn([C@H]2C[C@H](N=[N+]=[N-])[C@@H](CO)O2)c(=O)[nH]c1=O [AZT, 3′-Azido-3′-deoxythymidine]",EC50,"HIV-1LAI S117T/L214F; Human immunodeficiency virus 1, MT2, S117T/L214F, read-out: AZT EC50",22 ± 10 nM
same,Fold resistance,HIV-1LAI S117T/L214F; S117T/L214F relative to wild type virus,1.1
same,EC50,"HIV-1LAI S117T/4XAZT; Human immunodeficiency virus 1, MT2, S117T/4XAZT, read-out: AZT EC50",40 ± 6 nM
same,Fold resistance,HIV-1LAI S117T/4XAZT; S117T/4XAZT relative to wild type virus,1.4
same,EC50,"HIV-1LAI L214F; Human immunodeficiency virus 1, MT2, L214F, read-out: AZT EC50",35 ± 33 nM
same,Fold resistance,HIV-1LAI L214F; L214F relative to wild type virus,1.7
same,EC50,"HIV-1LAI M164I; Human immunodeficiency virus 1, MT2, M164I, read-out: AZT EC50",12 ± 4 nM
same,Fold resistance,HIV-1LAI M164I; M164I relative to wild type virus,0.6
"CCCCCCCCCCCCCCCCCCOC[C@H](COP(=O)(O)C(=O)O)OCC [EB-PFA, 1-O-octadecyl-2-O-ethyl-sn-glycero-3-PFA]",EC50,"[1]; Table 6, passage 15 (W88G, L214F)",3.7 µM
same,Fold resist.,[1]; [6],41 and 41.1
"CCCCCCCCCCCCCCCCCCOC[C@H](COP(=O)(O)C(=O)O)OC [MB-PFA, 1-O-octadecyl-2-O-methyl-sn-glycero-3-PFA]",Fold resistance,[2],< 3 fold
same,Fold resistance,"[3]; Example 6, repeated selection, after 15 passages (M164I and L214 mutations, not V75L)",31 fold
same,EC50,"[3]; Table 6, MB-PFA-selected virus, passage 15 (V75L, M164I, L214F)",2160 nM
same,Fold resist.,"[3]; Table 6, MB-PFA-selected virus, passage 15, relative to passage 0",27 and 30.9
"O=C(O)P(=O)(O)O [PFA, phosphonoformate, reference compound]",EC50,"[4]; Human immunodeficiency virus 1, Table 6, passage 17 (W88G)",122 µM
same,Fold resist.,"[4]; Table 6, passage 17, relative to passage 0",23 and 23.2
same,EC50,"[5]; Human immunodeficiency virus 1, Table 6, passage 15 (S117T)",122 µM
same,Fold resist.,[5]; [6],23 and 23.2

# Source: US20030207843A1, “Treatment of drug-resistant human immunodeficiency virus infection” (priority 1999, published 2003)
